Results: patent publication EP4722207A1, “OXOISOINDOLINYL-SUBSTITUTED TETRAHYDROPYRIMIDINEDIONE DERIVATIVE AND USE THEREOF” (Gluetacs Therapeutics (Shanghai) Co., Ltd., priority 2023, dated 2024)

Key:
Type in all cases: cell-based
IKZF2 = biological target: T1, IKZF2 (Homo sapiens, UniProt Q96SW2+Q9UKS7); assay: Western-blot assay, substrate protein degradation in hPBMCs: IKZF2; details: for substrate protein remaining % IKZF2: 24 hours of compound treatment, 50 nM and 500 nM; for IKZF2 substrate protein remaining %: compounds at 50 nM and 500 nM, 24 hours
T1 construct: effects of the compounds of the present disclosure on the expression of target proteins in cells; endogenous in cells; host or cells: human PBMCs (hPBMCs)

IKZF3 = biological target: T2, IKZF3 (Homo sapiens, UniProt Q96SW2+Q9UKT9); assay: Western-blot assay, substrate protein degradation in hPBMCs: IKZF3; details: for substrate protein remaining % IKZF3: 24 hours of compound treatment, 50 nM and 500 nM; for IKZF3 substrate protein remaining %: compounds at 50 nM and 500 nM, 24 hours
T2 construct: effects of the compounds of the present disclosure on the expression of target proteins in cells; endogenous in cells; host or cells: human PBMCs (hPBMCs)

WEE1 = biological target: T3, WEE1 (Homo sapiens, UniProt P30291+Q96SW2); assay: Western-blot assay, substrate protein degradation in hPBMCs: WEE1; details: for substrate protein remaining % WEE1: 24 hours of compound treatment, 50 nM and 500 nM; for WEE1 substrate protein remaining %: compounds at 50 nM and 500 nM, 24 hours
T3 construct: effects of the compounds of the present disclosure on the expression of target proteins in cells; endogenous in cells; host or cells: human PBMCs (hPBMCs)

IKZF1 = biological target: T4, IKZF1 (Homo sapiens, UniProt Q13422+Q96SW2); assay: Western-blot assay, substrate protein degradation in hPBMCs: IKZF1; details: for substrate protein remaining % IKZF1: 24 hours of compound treatment, 50 nM and 500 nM; for IKZF1 substrate protein remaining %: compounds at 50 nM and 500 nM, 24 hours
T4 construct: effects of the compounds of the present disclosure on the expression of target proteins in cells; endogenous in cells; host or cells: human PBMCs (hPBMCs)

CK1α = biological target: T5, CK1α (Homo sapiens, UniProt P48729+Q96SW2); assay: Western-blot assay, substrate protein degradation in hPBMCs: CK1α; details: for substrate protein remaining % CK1α: 24 hours of compound treatment, 50 nM and 500 nM; for CK1α substrate protein remaining %: compounds at 50 nM and 500 nM, 24 hours
T5 construct: effects of the compounds of the present disclosure on the expression of target proteins in cells; endogenous in cells; host or cells: human PBMCs (hPBMCs)

GSPT1 = biological target: T6, GSPT1 (Homo sapiens, UniProt P15170+Q96SW2); assay: Western-blot assay, substrate protein degradation in hPBMCs: GSPT1; details: for substrate protein remaining % GSPT1: 24 hours of compound treatment, 50 nM and 500 nM; for GSPT1 substrate protein remaining %: compounds at 50 nM and 500 nM, 24 hours
T6 construct: effects of the compounds of the present disclosure on the expression of target proteins in cells; endogenous in cells; host or cells: human PBMCs (hPBMCs)
T6 sequence (P15170 whole entry): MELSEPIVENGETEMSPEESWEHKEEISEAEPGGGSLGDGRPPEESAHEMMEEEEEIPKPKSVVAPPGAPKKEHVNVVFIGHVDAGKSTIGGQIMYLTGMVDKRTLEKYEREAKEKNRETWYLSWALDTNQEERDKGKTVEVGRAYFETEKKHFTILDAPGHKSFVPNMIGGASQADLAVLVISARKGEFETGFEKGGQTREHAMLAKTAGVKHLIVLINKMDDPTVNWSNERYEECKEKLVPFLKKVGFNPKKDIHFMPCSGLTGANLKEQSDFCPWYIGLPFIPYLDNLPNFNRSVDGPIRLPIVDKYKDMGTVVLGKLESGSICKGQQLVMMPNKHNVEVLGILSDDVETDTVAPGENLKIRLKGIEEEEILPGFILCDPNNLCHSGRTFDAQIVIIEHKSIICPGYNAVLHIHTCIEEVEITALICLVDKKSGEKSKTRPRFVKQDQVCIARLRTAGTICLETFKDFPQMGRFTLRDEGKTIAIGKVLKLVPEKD
T6 sequence (Q96SW2 whole entry): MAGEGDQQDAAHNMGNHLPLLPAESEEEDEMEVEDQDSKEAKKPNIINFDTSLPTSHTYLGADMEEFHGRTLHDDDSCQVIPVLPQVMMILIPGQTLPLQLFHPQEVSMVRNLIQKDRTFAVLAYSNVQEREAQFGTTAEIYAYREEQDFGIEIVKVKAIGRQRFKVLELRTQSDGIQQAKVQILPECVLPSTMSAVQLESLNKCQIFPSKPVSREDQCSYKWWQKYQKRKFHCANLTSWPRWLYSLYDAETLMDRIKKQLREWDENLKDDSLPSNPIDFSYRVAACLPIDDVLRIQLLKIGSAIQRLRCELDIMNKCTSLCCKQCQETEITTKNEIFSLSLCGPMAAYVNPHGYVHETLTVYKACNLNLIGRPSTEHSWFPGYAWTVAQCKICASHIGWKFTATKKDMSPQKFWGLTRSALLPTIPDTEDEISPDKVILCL
T6 sequence (Q16531 whole entry partner): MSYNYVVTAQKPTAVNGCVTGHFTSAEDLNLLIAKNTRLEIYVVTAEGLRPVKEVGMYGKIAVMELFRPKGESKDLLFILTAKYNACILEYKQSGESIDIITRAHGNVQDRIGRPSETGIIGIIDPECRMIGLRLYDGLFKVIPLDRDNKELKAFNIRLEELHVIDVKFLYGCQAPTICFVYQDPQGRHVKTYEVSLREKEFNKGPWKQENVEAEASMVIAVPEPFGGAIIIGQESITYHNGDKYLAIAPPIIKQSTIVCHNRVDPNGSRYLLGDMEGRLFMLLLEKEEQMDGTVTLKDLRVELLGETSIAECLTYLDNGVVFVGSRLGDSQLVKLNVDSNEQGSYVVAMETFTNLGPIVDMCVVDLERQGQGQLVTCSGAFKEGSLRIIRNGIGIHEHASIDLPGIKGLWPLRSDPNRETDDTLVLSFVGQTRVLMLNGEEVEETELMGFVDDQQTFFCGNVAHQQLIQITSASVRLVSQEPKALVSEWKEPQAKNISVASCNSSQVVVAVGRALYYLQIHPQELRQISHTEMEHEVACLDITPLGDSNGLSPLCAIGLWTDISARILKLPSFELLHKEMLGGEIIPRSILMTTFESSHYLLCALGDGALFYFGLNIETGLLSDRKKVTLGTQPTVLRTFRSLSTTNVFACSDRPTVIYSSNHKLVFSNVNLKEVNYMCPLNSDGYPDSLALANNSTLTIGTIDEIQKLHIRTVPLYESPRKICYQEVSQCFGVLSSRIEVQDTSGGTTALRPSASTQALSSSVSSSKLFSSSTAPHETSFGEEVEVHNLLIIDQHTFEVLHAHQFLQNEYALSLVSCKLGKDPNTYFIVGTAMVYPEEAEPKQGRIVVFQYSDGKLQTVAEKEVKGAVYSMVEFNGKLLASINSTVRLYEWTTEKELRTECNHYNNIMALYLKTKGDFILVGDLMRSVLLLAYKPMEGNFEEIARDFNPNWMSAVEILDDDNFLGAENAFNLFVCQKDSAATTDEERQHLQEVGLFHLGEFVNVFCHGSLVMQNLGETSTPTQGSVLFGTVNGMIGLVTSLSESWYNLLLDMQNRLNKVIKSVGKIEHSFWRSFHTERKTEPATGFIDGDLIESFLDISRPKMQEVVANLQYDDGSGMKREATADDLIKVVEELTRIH

T2 sequence (Q9UKT9 whole entry): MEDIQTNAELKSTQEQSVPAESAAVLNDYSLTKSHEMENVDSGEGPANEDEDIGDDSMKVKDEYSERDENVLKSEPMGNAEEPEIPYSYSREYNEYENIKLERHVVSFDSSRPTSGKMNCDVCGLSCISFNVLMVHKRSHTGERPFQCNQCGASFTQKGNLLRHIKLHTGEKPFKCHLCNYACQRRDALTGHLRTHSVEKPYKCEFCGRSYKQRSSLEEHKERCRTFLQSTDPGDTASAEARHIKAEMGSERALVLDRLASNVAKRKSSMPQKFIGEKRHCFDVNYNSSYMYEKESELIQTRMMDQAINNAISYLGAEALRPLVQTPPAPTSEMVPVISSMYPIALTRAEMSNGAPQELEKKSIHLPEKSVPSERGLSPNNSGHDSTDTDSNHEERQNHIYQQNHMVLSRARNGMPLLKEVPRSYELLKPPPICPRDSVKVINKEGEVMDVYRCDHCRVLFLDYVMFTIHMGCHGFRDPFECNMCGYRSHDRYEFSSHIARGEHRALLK
T2 sequence (Q96SW2 whole entry): as the sequence (Q96SW2 whole entry) above
T2 sequence (Q16531 whole entry partner): as the sequence (Q16531 whole entry partner) above
T5 sequence (P48729 whole entry): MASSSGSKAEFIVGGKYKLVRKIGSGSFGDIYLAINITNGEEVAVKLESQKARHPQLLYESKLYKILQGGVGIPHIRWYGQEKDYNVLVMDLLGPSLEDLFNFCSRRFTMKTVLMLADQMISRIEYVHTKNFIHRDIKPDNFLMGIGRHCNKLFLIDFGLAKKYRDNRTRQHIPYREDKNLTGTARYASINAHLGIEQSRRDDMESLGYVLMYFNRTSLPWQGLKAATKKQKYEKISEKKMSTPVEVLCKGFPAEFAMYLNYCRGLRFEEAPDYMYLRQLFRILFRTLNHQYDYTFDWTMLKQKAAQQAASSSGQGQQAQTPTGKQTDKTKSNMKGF
T5 sequence (Q96SW2 whole entry): as the sequence (Q96SW2 whole entry) above
T5 sequence (Q16531 whole entry partner): as the sequence (Q16531 whole entry partner) above
T1 sequence (Q9UKS7 whole entry): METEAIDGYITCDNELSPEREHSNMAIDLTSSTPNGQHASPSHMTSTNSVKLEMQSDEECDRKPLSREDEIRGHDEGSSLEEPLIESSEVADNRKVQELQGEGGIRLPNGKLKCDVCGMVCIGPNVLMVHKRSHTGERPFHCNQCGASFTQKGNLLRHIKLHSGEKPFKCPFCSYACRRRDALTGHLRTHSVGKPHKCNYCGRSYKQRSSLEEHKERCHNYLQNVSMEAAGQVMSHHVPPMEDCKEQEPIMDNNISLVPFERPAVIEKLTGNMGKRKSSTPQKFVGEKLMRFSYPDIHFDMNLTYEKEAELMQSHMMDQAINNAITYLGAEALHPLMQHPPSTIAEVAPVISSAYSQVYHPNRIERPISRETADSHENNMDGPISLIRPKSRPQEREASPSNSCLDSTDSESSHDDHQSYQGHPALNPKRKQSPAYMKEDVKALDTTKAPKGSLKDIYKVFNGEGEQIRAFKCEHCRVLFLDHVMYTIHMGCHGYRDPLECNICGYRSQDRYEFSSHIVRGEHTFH
T1 sequence (Q96SW2 whole entry): as the sequence (Q96SW2 whole entry) above
T1 sequence (Q16531 whole entry partner): as the sequence (Q16531 whole entry partner) above
T3 sequence (P30291 whole entry): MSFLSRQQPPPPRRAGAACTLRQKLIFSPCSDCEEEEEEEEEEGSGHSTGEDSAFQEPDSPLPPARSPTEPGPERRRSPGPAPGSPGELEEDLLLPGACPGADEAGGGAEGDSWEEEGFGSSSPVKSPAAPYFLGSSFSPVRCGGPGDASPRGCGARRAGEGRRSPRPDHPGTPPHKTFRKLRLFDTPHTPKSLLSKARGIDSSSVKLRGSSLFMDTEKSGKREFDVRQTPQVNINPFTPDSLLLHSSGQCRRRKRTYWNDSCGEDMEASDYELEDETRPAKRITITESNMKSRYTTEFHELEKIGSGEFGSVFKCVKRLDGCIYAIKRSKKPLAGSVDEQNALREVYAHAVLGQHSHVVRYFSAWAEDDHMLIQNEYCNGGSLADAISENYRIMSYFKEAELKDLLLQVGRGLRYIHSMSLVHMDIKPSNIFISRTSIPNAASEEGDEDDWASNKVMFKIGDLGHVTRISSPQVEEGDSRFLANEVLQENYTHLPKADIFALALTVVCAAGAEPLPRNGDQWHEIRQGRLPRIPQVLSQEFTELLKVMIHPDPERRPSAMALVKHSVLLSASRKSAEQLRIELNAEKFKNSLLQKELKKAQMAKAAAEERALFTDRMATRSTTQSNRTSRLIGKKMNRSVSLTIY
T3 sequence (Q96SW2 whole entry): as the sequence (Q96SW2 whole entry) above
T3 sequence (Q16531 whole entry partner): as the sequence (Q16531 whole entry partner) above

Row | SMILES | substrate protein remaining % IKZF2 (IKZF2) | substrate protein remaining % IKZF3 (IKZF3) | substrate protein remaining % WEE1 (WEE1) | substrate protein remaining % IKZF1 (IKZF1) | substrate protein remaining % CK1α (CK1α) | substrate protein remaining % GSPT1 (GSPT1) | IKZF2 substrate protein remaining % (IKZF2) | IKZF3 substrate protein remaining % (IKZF3) | WEE1 substrate protein remaining % (WEE1) | IKZF1 substrate protein remaining % (IKZF1) | CK1α substrate protein remaining % (CK1α) | GSPT1 substrate protein remaining % (GSPT1)
1 | O=C1CCN(N2C(=O)c3ccc(CN4CCN(CC5=C(c6ccc(F)cc6)CCCC5)CC4)cc3C2=O)C(=O)N1 [GT-07302, 2-(2,4-dioxotetrahydropyrimidin-1(2H)-yl)-5-((4-((4'-fluoro-3,4,5,6-tetrahydro-[1,1'-biphenyl]-2-yl)methyl)piperazin-1-yl)methyl)isoindoline-1,3-dione] | B (80%< substrate protein remaining %≤ 100%) | B (80%< substrate protein remaining %≤ 100%) | A (0% ≤ substrate protein remaining % ≤ 80%) | B (80%< substrate protein remaining %≤ 100%) | B (80%< substrate protein remaining %≤ 100%) | B (80%< substrate protein remaining %≤ 100%) | – | – | – | – | – | –
2 | CC1(C)CCC(CN2CCN(Cc3ccc4c(c3)C(=O)N(N3CCC(=O)NC3=O)C4=O)CC2)=C(c2ccc(Cl)cc2)C1 [GT-05180, 5-((4-((4'-chloro-5,5-dimethyl-3,4,5,6-tetrahydro-[1,1'-biphenyl]-2-yl)methyl)piperazin-1-yl)methyl)-2-(2,4-dioxotetrahydropyrimidin-1(2H)-yl)isoindoline-1,3-dione] | – | – | – | – | – | – | B ("B" is defined as 80%< substrate protein remaining %≤ 100%) | B ("B" is defined as 80%< substrate protein remaining %≤ 100%) | A ("A" is defined as 0% ≤ substrate protein remaining % ≤ 80%) | B ("B" is defined as 80%< substrate protein remaining %≤ 100%) | B ("B" is defined as 80%< substrate protein remaining %≤ 100%) | B ("B" is defined as 80%< substrate protein remaining %≤ 100%)
3 | O=C1CCN(N2Cc3cc(CN4CCC(c5ccon5)CC4)ccc3C2=O)C(=O)N1 [GT-07495, 1-(5-((4-(isoxazol-3-yl)piperidin-1-yl)methyl)-1-oxoisoindolin-2-yl)dihydropyrimidine-2,4(1H,3H)-dione] | B (80%< substrate protein remaining %≤ 100%) | B (80%< substrate protein remaining %≤ 100%) | B (80%< substrate protein remaining %≤ 100%) | B (80%< substrate protein remaining %≤ 100%) | A (0% ≤ substrate protein remaining % ≤ 80%) | A (0% ≤ substrate protein remaining % ≤ 80%) | – | – | – | – | – | –
4 | COc1ccc(N2CCN(Cc3ccc4c(c3)CN(N3CCC(=O)NC3=O)C4=O)CC2)cc1 [GT-06767, 1-(5-((4-(4-methoxyphenyl)piperazin-1-yl)methyl)-1-oxoisoindolin-2-yl)dihydropyrimidine-2,4(1H,3H)-dione] | – | – | – | – | – | – | A ("A" is defined as 0% ≤ substrate protein remaining % ≤ 80%) | A ("A" is defined as 0% ≤ substrate protein remaining % ≤ 80%) | A ("A" is defined as 0% ≤ substrate protein remaining % ≤ 80%) | A ("A" is defined as 0% ≤ substrate protein remaining % ≤ 80%) | A ("A" is defined as 0% ≤ substrate protein remaining % ≤ 80%) | A ("A" is defined as 0% ≤ substrate protein remaining % ≤ 80%)
5 | O=C1CCN(N2C(=O)c3ccc(CN4CCN(c5cccc(Cl)c5Cl)CC4)cc3C2=O)C(=O)N1 [GT-04854, 5-((4-(2,3-dichlorophenyl)piperazin-1-yl)methyl)-2-(2,4-dioxotetrahydropyrimidin-1(2H)-yl)isoindoline-1,3-dione] | – | – | – | – | – | – | A ("A" is defined as 0% ≤ substrate protein remaining % ≤ 80%) | B ("B" is defined as 80%< substrate protein remaining %≤ 100%) | A ("A" is defined as 0% ≤ substrate protein remaining % ≤ 80%) | A ("A" is defined as 0% ≤ substrate protein remaining % ≤ 80%) | B ("B" is defined as 80%< substrate protein remaining %≤ 100%) | A ("A" is defined as 0% ≤ substrate protein remaining % ≤ 80%)
6 | O=C1CCN(N2C(=O)c3ccc(CN4CCC(N5C(=O)COc6cc(F)ccc65)CC4)cc3C2=O)C(=O)N1 [GT-07683, 2-(2,4-dioxotetrahydropyrimidin-1(2H)-yl)-5-((4-(7-fluoro-3-oxo-2,3-dihydro-4H-benzo[b][1,4]oxazin-4-yl)piperidin-1-yl)methyl)isoindoline-1,3-dione] | B (80%< substrate protein remaining %≤ 100%) | B (80%< substrate protein remaining %≤ 100%) | B (80%< substrate protein remaining %≤ 100%) | B (80%< substrate protein remaining %≤ 100%) | B (80%< substrate protein remaining %≤ 100%) | A (0% ≤ substrate protein remaining % ≤ 80%) | – | – | – | – | – | –
7 | O=C1CCN(N2Cc3cc(CN4CCN(c5cccc(F)n5)CC4)ccc3C2=O)C(=O)N1 [GT-05130, 1-(5-((4-(6-fluoropyridin-2-yl)piperazin-1-yl)methyl)-1-oxoisoindolin-2-yl)dihydropyrimidine-2,4(1H,3H)-dione] | – | – | – | – | – | – | A ("A" is defined as 0% ≤ substrate protein remaining % ≤ 80%) | A ("A" is defined as 0% ≤ substrate protein remaining % ≤ 80%) | A ("A" is defined as 0% ≤ substrate protein remaining % ≤ 80%) | A ("A" is defined as 0% ≤ substrate protein remaining % ≤ 80%) | A ("A" is defined as 0% ≤ substrate protein remaining % ≤ 80%) | A ("A" is defined as 0% ≤ substrate protein remaining % ≤ 80%)
8 | Cc1nc(C2=CCN(Cc3ccc4c(c3)C(=O)N(N3CCC(=O)NC3=O)C4=O)CC2)c2c3c(sc2n1)CCC3 [GT-08435, 2-(2,4-dioxotetrahydropyrimidin-1(2H)-yl)-5-((4-(2-methyl-6,7-dihydro-5H-cyclopenta[4,5]thieno[2,3-d]pyrimidin-4-yl)-3,6-dihydropyridin-1(2H)-yl)methyl)isoindoline-1,3-dione] | B (80%< substrate protein remaining %≤ 100%) | A (0% ≤ substrate protein remaining % ≤ 80%) | A (0% ≤ substrate protein remaining % ≤ 80%) | A (0% ≤ substrate protein remaining % ≤ 80%) | B (80%< substrate protein remaining %≤ 100%) | A (0% ≤ substrate protein remaining % ≤ 80%) | – | – | – | – | – | –
9 | O=C1CCN(N2C(=O)c3ccc(CN4CCC(c5ccccc5F)CC4)cc3C2=O)C(=O)N1 [GT-06877, 2-(2,4-dioxotetrahydropyrimidin-1(2H)-yl)-5-((4-(2-fluorophenyl)piperidin-1-yl)methyl)isoindoline-1,3-dione] | – | – | – | – | – | – | B ("B" is defined as 80%< substrate protein remaining %≤ 100%) | B ("B" is defined as 80%< substrate protein remaining %≤ 100%) | B ("B" is defined as 80%< substrate protein remaining %≤ 100%) | B ("B" is defined as 80%< substrate protein remaining %≤ 100%) | A ("A" is defined as 0% ≤ substrate protein remaining % ≤ 80%) | B ("B" is defined as 80%< substrate protein remaining %≤ 100%)
10 | O=C1CCN(N2C(=O)c3ccc(CN4CCN(c5ccncc5Br)CC4)cc3C2=O)C(=O)N1 [GT-07163, 5-((4-(3-bromopyridin-4-yl)piperazin-1-yl)methyl)-2-(2,4-dioxotetrahydropyrimidin-1(2H)-yl)isoindoline-1,3-dione] | – | – | – | – | – | – | A ("A" is defined as 0% ≤ substrate protein remaining % ≤ 80%) | B ("B" is defined as 80%< substrate protein remaining %≤ 100%) | B ("B" is defined as 80%< substrate protein remaining %≤ 100%) | B ("B" is defined as 80%< substrate protein remaining %≤ 100%) | B ("B" is defined as 80%< substrate protein remaining %≤ 100%) | A ("A" is defined as 0% ≤ substrate protein remaining % ≤ 80%)
11 | O=C1CCN(N2C(=O)c3ccc(CN4CCN(c5c[nH]c6ncccc56)CC4)cc3C2=O)C(=O)N1 [GT-07528, 5-((4-(1H-pyrrolo[2,3-b]pyridin-3-yl)piperazin-1-yl)methyl)-2-(2,4-dioxotetrahydropyrimidin-1(2H)-yl)isoindoline-1,3-dione] | B (80%< substrate protein remaining %≤ 100%) | B (80%< substrate protein remaining %≤ 100%) | B (80%< substrate protein remaining %≤ 100%) | B (80%< substrate protein remaining %≤ 100%) | A (0% ≤ substrate protein remaining % ≤ 80%) | A (0% ≤ substrate protein remaining % ≤ 80%) | – | – | – | – | – | –
12 | O=C1CCN(N2C(=O)c3ccc(CN4CCC(c5c[nH]c6ncccc56)CC4)cc3C2=O)C(=O)N1 [GT-07582, 5-((4-(1H-pyrrolo[2,3-b]pyridin-3-yl)piperidin-1-yl)methyl)-2-(2,4-dioxotetrahydropyrimidin-1(2H)-yl)isoindoline-1,3-dione] | A (0% ≤ substrate protein remaining % ≤ 80%) | B (80%< substrate protein remaining %≤ 100%) | A (0% ≤ substrate protein remaining % ≤ 80%) | A (0% ≤ substrate protein remaining % ≤ 80%) | B (80%< substrate protein remaining %≤ 100%) | A (0% ≤ substrate protein remaining % ≤ 80%) | – | – | – | – | – | –
